In ChEMBL document CHEMBL1201862, “PubChem BioAssay data set” (2004):
The source made the active and inactive calls.

Experiments:
[1] = target: Voltage-dependent T-type calcium channel subunit alpha-1H (Homo sapiens, UniProt O95180); format: functional;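 further: channel activity triggered by adding a high calcium stimulation buffer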
Protein skinhead-1 = target: T1, Protein skinhead-1 (Caenorhabditis elegans, UniProt P34707); format: functional
T1 sequence (P34707 whole entry): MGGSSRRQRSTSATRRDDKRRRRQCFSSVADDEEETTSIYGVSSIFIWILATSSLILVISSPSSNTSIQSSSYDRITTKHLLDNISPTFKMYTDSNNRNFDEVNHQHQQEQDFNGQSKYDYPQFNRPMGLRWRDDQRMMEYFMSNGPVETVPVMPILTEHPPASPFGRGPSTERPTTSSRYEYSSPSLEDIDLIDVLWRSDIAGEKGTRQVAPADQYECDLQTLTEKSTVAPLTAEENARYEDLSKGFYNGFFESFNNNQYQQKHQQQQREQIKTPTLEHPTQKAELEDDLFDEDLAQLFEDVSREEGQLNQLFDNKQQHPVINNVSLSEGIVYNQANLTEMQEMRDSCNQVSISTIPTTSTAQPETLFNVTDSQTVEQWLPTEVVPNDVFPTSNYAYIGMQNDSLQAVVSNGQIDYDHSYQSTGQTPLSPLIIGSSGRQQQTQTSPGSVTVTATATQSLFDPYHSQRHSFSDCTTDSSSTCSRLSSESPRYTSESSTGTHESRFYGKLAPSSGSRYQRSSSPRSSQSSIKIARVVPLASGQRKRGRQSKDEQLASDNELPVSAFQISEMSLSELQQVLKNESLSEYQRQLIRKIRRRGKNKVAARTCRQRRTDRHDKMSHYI

Fatty acid synthase [2] = target: T2, Fatty acid synthase (Homo sapiens, UniProt P49327); assay: FAS thioesterase domain inhibitors, dose response, biochemical, kinetic fluorescence intensity (AID 624326); format: functional;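 further: rate of fluorescence rise from hydrolysis of a fluorogenic O-methyl fluorescein ester substrate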
T2 sequence (P49327 whole entry, the tested form may be a part): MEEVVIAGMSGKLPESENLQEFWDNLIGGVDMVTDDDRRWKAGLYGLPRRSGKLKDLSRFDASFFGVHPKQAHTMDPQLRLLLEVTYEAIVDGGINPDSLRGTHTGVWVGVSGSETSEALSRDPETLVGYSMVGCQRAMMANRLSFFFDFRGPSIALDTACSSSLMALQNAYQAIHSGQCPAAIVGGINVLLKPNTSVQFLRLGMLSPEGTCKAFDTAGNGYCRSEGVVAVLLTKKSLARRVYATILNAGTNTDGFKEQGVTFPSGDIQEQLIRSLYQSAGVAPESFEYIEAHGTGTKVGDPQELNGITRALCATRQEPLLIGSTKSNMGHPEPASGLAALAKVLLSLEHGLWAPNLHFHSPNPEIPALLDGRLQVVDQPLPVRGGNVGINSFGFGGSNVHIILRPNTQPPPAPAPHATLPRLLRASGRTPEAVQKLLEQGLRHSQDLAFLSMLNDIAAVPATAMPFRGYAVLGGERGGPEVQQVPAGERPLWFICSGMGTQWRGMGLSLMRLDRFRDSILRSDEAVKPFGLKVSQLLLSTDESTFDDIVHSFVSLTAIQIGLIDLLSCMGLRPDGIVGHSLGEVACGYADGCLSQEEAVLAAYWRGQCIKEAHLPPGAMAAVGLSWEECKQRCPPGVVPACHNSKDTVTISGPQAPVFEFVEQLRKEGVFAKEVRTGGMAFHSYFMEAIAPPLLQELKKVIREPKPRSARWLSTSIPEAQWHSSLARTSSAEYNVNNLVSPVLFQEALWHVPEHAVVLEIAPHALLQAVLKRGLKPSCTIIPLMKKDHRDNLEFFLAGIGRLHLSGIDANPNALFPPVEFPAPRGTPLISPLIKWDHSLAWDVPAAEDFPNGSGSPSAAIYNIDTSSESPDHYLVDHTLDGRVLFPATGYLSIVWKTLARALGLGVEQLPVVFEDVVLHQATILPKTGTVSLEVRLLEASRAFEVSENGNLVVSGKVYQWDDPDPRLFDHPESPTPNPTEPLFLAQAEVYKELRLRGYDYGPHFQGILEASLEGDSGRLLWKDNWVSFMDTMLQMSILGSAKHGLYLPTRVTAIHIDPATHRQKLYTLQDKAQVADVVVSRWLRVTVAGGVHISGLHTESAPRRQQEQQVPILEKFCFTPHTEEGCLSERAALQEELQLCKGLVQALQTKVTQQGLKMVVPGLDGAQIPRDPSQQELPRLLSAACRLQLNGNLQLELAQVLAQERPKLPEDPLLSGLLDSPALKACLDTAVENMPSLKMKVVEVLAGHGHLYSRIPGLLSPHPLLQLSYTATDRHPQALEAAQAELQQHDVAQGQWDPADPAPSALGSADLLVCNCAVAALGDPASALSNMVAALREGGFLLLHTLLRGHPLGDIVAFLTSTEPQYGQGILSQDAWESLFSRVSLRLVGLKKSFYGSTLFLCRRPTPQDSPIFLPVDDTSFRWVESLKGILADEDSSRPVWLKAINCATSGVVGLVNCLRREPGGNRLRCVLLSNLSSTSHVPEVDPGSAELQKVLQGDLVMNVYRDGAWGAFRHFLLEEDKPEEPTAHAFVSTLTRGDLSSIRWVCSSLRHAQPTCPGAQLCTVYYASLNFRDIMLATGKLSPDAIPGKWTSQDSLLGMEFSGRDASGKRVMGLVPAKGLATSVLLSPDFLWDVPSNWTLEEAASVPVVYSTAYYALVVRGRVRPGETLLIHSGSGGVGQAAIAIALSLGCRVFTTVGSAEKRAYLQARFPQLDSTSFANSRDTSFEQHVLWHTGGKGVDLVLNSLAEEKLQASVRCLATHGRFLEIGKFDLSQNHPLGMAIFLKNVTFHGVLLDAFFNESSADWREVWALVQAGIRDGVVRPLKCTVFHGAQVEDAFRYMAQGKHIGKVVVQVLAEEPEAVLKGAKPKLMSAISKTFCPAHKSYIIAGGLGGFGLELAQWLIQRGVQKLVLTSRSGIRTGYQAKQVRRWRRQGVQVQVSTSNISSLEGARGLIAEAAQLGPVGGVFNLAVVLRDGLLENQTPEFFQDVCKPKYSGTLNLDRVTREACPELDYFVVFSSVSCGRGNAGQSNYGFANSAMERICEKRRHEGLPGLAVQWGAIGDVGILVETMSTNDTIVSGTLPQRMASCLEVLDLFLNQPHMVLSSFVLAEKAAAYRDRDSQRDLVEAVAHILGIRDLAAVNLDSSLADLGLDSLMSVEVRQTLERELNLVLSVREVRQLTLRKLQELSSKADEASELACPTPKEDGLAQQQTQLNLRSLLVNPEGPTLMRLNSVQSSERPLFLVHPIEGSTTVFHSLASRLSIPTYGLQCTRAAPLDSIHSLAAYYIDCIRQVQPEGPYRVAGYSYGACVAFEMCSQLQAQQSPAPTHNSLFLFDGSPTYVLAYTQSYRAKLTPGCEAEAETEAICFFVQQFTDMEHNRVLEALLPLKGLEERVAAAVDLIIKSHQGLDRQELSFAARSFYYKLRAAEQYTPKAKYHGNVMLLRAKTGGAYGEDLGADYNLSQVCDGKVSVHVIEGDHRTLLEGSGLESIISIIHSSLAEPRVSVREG

Fatty acid synthase [3] = target: T2, Fatty acid synthase; assay: FAS thioesterase domain inhibitors, dose response, biochemical, endpoint fluorescence intensity, uHTS hits (AID 624327); format: functional;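 further: fluorescence from hydrolysis of an O-methyl fluorescein acyl ester substrate by the enzyme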
[4] = inhibitors of clade B AD8 Env fusion, dose response, cell-based, cherry-pick (AID 652062); format: functional;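 further: luciferase signal from cell-cell fusion driven by HIV-1 clade B AD8 Env; potency is for inhibitors of fusion seen as a drop in luminescence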
[5] = ZM109 Env clade C HIV-1 fusion inhibitors, dose response, HeLa effector, CEM target cells, luciferase, cherry-pick (AID 652058); format: functional, cell-based
[6] = off-target signal loss in HeLa-CEM21 co-culture – HeLa F-luc CTL cells, cherry-picked, counter-screen for HIV-1 Env fusion inhibitor project, dose response (AID 652040); format: functional, cell-based;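 further: potency for signal decrease marking cytotoxic or nonspecific inhibition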
[7] = inhibitors of HIV Env-driven cell fusion, dose response, cherry-pick (AID 652057); format: functional, cell-based
[8] = target: T3, Heat shock factor protein 1 (Mus musculus, UniProt P38532); assay: HSF1 potentiators in luciferase reporter cells, confirmation, cell-based, NIH3T3, luminescence, dose retest (AID 435004); format: functional;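 further: stress induced by proteasome inhibitor MG132 added 30 min after compound; luciferase reporter driven by HSF1 response element in NIH3T3 cells; actives raise luminescence as potentiators of the MG132 stress response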
T3 sequence (P38532 whole entry): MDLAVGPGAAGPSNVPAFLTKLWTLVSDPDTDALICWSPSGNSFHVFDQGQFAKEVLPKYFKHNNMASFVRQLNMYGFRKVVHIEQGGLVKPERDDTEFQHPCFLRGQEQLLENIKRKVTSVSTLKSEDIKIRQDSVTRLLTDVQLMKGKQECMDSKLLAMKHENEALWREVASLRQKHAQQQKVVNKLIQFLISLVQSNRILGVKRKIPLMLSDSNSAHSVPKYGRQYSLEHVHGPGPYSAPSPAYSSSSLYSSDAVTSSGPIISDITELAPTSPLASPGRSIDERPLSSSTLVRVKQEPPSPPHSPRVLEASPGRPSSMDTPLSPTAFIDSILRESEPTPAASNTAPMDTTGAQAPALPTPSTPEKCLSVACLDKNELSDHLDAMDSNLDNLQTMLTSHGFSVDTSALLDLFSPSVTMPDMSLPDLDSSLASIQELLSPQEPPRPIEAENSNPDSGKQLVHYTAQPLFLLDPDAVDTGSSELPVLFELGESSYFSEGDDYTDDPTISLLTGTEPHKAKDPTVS

cells [9] = format: functional
cells [10] = format: functional, cell-based
cells [11] = format: functional, cell-based; remark: listed apart in the source
[12] = Luminescence Cell-Based Dose Retest to Confirm Inhibitors of Cancer Stem Cells. [Related pubchem assays (depositor defined):AID2717, AID2721]; format: functional; settings: Homo sapiens
[13] = inhibitors of SNCA 5'UTR-driven reporter translation, confirmation, H4 neuroglioma cells, luminescence (AID 1988); format: functional, cell-based
[14] = Luminescence Cell-Based Dose Response HTS to Identify Inhibitors of 5'UTR Stem-Loop Driven Prion Protein mRNA Translation in H4 Neuroglioblastoma Cells. [Related pubchem assays: 1827 (Project Summary), 1813 (Primary HTS)]; format: functional
[15] = inhibitors of firefly luciferase expression or activity, dose response, H4 neuroglioma cells, luminescence (AID 1990); format: functional, cell-based
Cytochrome P450 2C9 = Cytochrome P450 2C9 (Homo sapiens, UniProt P11712)
Cytochrome P450 2C19 = Cytochrome P450 2C19 (Homo sapiens, UniProt P33261); assay: Cytochrome panel assay with activity outcomes. Panel member name: p450-cyp2c19 Compounds with AC50 equal or less than 10 uM are considered active; format: functional; settings: read-out: AC50
[16] = intracellular Trypanosoma cruzi inhibitors in host cells – cell-based, plate reader, cherry-pick samples, set 3, dose response (AID 651818); format: functional;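 further: compounds incubated with infected cells for about four days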
[17] = THP-1 cell cytotoxicity, dose response, cytotoxicity control for non-replicating M. tuberculosis project (AID 489025); format: functional
[18] = test system: Streptococcus sp. 'group A'; assay: growth inhibition of control SK(-) GAS strain, dose response, counter-screen for streptokinase expression inhibitor project, luminescence, kanamycin, BacTiterGlo, confirmation (AID 1900); format: functional, organism-based
Streptococcus = assay: Group A Streptococcus viability loss, dose response, counter-screen for streptokinase expression inhibitor project, luminescence, BacTiterGlo (AID 1915); format: functional, organism-based;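 further: potency for reduction of bacterial viability or growth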
Streptokinase A = target: T4, Streptokinase A (Streptococcus pyogenes serotype M1, UniProt P10520); assay: S. pyogenes streptokinase expression inhibitors, potency, dose response, plasminogen activation absorbance, OD405 (AID 1914); format: functional, Streptococcus pyogenes M1 GAS;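 further: secreted streptokinase activity via plasminogen activation per viability signal from cell pellet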
T4 sequence (P10520 whole entry): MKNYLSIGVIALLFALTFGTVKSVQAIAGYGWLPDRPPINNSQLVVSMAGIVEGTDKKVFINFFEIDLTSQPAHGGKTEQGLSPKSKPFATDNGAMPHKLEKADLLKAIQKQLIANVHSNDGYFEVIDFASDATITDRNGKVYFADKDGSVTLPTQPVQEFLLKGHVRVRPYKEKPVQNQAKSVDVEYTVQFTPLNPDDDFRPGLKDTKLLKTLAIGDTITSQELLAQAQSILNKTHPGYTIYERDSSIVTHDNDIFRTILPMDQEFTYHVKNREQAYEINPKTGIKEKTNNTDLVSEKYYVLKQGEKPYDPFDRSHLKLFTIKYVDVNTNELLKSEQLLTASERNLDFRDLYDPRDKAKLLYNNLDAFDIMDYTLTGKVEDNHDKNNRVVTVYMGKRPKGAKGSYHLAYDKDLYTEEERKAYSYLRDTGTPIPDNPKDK

Sequence of Voltage-dependent T-type calcium channel subunit alpha-1H (O95180 whole entry): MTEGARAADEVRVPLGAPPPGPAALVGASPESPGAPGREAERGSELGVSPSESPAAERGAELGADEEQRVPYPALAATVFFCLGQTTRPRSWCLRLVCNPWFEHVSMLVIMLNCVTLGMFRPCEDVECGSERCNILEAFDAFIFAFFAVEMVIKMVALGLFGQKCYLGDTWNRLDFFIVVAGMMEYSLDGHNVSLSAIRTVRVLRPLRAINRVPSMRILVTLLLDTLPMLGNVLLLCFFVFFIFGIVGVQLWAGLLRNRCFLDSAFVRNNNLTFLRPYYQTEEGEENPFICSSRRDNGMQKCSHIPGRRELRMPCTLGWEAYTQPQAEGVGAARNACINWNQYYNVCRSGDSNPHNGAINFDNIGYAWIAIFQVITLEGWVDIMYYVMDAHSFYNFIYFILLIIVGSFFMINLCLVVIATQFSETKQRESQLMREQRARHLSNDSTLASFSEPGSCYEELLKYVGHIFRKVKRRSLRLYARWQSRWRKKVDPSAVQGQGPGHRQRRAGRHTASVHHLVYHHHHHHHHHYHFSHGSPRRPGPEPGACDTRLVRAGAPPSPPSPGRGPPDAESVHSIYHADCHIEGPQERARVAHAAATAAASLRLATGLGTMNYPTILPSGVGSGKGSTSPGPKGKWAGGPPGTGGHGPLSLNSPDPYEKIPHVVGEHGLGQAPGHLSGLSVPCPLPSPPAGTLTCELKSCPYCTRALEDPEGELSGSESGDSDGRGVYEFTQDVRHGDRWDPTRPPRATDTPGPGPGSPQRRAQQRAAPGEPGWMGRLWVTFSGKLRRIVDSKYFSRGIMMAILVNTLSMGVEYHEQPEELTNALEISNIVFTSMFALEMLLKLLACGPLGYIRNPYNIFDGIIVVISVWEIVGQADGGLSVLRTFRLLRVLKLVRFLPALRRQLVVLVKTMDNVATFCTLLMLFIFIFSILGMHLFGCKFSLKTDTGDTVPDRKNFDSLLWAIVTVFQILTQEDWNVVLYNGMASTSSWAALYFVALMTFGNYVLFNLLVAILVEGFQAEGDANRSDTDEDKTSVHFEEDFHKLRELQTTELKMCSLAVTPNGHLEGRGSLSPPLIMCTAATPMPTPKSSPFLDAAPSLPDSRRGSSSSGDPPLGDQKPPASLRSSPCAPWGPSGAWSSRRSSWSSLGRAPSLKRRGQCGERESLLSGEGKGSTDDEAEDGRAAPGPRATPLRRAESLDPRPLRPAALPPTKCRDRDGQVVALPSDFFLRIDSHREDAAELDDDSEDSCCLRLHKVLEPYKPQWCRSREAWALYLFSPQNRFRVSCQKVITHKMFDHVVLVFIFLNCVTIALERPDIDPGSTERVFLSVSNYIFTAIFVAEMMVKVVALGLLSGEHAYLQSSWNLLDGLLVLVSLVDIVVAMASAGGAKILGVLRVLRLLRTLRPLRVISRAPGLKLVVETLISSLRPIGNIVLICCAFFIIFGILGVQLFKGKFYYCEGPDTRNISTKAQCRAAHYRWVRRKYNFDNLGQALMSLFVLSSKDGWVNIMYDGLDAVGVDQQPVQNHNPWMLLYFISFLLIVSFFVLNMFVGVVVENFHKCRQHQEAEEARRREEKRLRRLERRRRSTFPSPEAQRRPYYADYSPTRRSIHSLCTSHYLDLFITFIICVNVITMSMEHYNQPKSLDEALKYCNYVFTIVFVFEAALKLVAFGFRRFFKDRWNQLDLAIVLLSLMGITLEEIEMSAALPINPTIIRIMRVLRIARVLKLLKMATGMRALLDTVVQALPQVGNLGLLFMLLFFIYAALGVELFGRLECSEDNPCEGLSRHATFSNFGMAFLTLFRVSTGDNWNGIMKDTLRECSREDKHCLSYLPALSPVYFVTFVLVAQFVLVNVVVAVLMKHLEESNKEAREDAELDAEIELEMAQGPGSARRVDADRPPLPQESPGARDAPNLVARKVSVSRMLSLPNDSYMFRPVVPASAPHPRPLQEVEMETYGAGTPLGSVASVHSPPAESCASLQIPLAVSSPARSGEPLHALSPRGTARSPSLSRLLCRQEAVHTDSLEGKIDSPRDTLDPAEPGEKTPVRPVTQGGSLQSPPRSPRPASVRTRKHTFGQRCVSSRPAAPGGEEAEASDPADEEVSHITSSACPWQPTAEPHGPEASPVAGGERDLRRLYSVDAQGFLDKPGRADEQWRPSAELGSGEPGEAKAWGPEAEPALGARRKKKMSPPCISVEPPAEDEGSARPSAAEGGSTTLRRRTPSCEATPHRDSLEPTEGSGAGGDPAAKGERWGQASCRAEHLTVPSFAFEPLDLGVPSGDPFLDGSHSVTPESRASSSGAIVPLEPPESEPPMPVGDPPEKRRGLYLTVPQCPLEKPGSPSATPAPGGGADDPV

CC(C(=O)N1c2ccccc2Sc2ccccc21)n1nnc(-c2cccs2)n1 (centres undefined)
EC50 [1]: 6.38 µM (active)

Cc1cc(C)n(Cc2ccc(C(=O)NCc3ccco3)o2)n1
IC50 (Protein skinhead-1): > 100 µM (inactive)

N#Cc1cc(-c2ccccc2)cn(Cc2c(Cl)cccc2Cl)c1=O
IC50 (Fatty acid synthase [2]): 8.23 µM (active) | IC50 (Fatty acid synthase [3]): 7.42 µM (active)

N#C/C(=C\c1cn(CCOc2ccccc2)c2ccccc12)C(=O)NCC1CCCO1 (centres undefined)
EC50 [1]: 5.31 µM (active)

O=[N+]([O-])c1cccc(NC(=S)N2CCc3ccccc3C2)c1
IC50 (Fatty acid synthase [2]): 10.6 µM (active) | IC50 (Fatty acid synthase [3]): 16.5 µM (active)

COc1ccc(Cn2nnnc2C(c2cc3cc(C)cc(C)c3nc2O)N2CCOCC2)cc1 (centres undefined)
AC50 [4]: 5.51 µM (active) | AC50 [5]: 4.35 µM (active) | AC50 [6]: 4.7 µM (active) | AC50 [7]: 3.39 µM (active)

c1ccc(Cn2nnnc2C(c2cccs2)N2CCc3ccccc3C2)cc1 (centres undefined)
EC50 [8]: > 260 µM (inactive) | EC50 [1]: 0.844 µM (active)

CCC(=O)Nc1ccc(S(=O)(=O)N2CCc3ccccc3C2)cc1
EC50 [1]: 7.83 µM (active)

Cc1c(Br)c([N+](=O)[O-])nn1CC(=O)Nc1ccc(Cc2ccncc2)cc1
IC50 (Fatty acid synthase [2]): 8.12 µM (active) | IC50 (Fatty acid synthase [3]): 9.53 µM (active)

COc1cccc(N2CCN(CC(=O)Nc3nnc(-c4ccccc4)s3)CC2)c1
EC50 [1]: 6.4 µM (active)

CC(=O)c1cccc(NS(=O)(=O)c2ccc3c(c2)oc(=O)n3C)c1
IC50 (Protein skinhead-1): > 100 µM (inactive)

O=C(COC(=O)CCc1c[nH]c2ccccc12)Nc1cc([N+](=O)[O-])ccc1Cl
IC50 (cells [9]): 4.54 µM (active) | IC50 (Fatty acid synthase [2]): 10.7 µM (active) | IC50 (Fatty acid synthase [3]): 15.2 µM (active)

O=C(c1ccc(Cl)c([N+](=O)[O-])c1)N1CCN(S(=O)(=O)c2ccc(Cl)cc2)CC1
IC50 (Fatty acid synthase [2]): 16.2 µM (active) | IC50 (Fatty acid synthase [3]): 14.2 µM (active)

O=C(N/N=C/C(Br)=C\c1ccccc1)c1ccco1
EC50 (cells [10]): 13.8 µM (active) | EC50 (cells [11]): > 350 µM (not active)

O=C(CNC(=O)C(c1ccccc1)c1ccccc1)N/N=C/c1ccc(O)cc1O
EC50 (cells [10]): > 350 µM (not active) | EC50 (cells [11]): 17.5 µM (active) | AC50 [12]: 2.59 µM (active)

COc1cccc(C(c2sc3ncnn3c2O)N2CC(C)OC(C)C2)c1 (centres undefined)
IC50 (Protein skinhead-1): > 100 µM (inactive)

Cc1cc(NC(=O)CSc2nc3ccccc3c(=O)n2Cc2ccc(F)cc2)no1
IC50 (Protein skinhead-1): 82.4 µM (inactive)

COc1ccc(NC(=O)c2cccc(NC(=O)c3ccco3)c2)c(OC)c1
EC50 (cells [10]): > 350 µM (not active) | EC50 (cells [11]): > 350 µM (not active)

COc1ccc(CCC(C)NCc2cc(OC)cc(OC)c2)cc1 (centres undefined)
AC50 [4]: 14.1 µM (active) | AC50 [5]: 9.46 µM (active) | AC50 [6]: 7.92 µM (active) | AC50 [7]: 6.55 µM (active)

Cc1cc(C)nc(N/N=C/C2=C(O)CC(c3ccccc3)CC2=O)n1 (centres undefined)
EC50 (cells [10]): > 350 µM (not active) | EC50 [13]: 11.3 µM (active) | EC50 (cells [11]): > 350 µM (not active) | EC50 [14]: 14.5 µM (active) | EC50 [15]: 14.7 µM (active)

Clc1cccc(OCc2nc(-c3ccncc3)no2)c1
IC50 (Protein skinhead-1): 26.6 µM (active)

Cn1c(-c2ccccc2)cnc1NCc1cccc([N+](=O)[O-])c1
IC50 (Fatty acid synthase [2]): 8.79 µM (active) | IC50 (Fatty acid synthase [3]): 6.81 µM (active)

O=C(CCNC(=O)c1ccc([N+](=O)[O-])cc1)NCCc1ccc(Cl)cc1
IC50 (Fatty acid synthase [2]): 7.38 µM (active) | IC50 (Fatty acid synthase [3]): 8.77 µM (active)

CC[C@@]12C(=O)N(c3ccc(C)cc3)C(=O)N1[C@H](c1ccc(OC)cc1)[C@@H]1C(=O)N(C(C)(C)C)C(=O)[C@@H]12
AC50 [4]: 3.09 µM (active) | AC50 [5]: 2.86 µM (active) | AC50 [6]: 4.94 µM (active) | AC50 [7]: 2.37 µM (active)

COCCNC(=O)c1sc2nc(-c3ccccc3)cn2c1C
EC50 (cells [10]): > 350 µM (not active) | AC50 (Cytochrome P450 2C9): 28.2 µM (inconclusive) | EC50 (cells [11]): > 350 µM (not active) | AC50 (Cytochrome P450 2C19): 20 µM (inconclusive)

C[C@@H]1CN([C@H](C)CO)C(=O)c2cc(NS(=O)(=O)c3ccc(Cl)cc3)ccc2O[C@@H]1CN(C)Cc1ccc(Cl)c(Cl)c1
AC50 [16]: 4.7 µM (active)

CCCc1ccc(OCc2ccc(C(=O)N/N=C/c3cccnc3)o2)cc1
IC50 (cells [9]): 47.6 µM (active) | CC50 [17]: > 40 µM (active)

CCCCN1CCC(O)(c2ccccc2)C(C(=O)c2ccccc2)C1 (centres undefined)
IC50 (cells [9]): 29.6 µM (active) | CC50 [17]: > 40 µM (active)

C[C@@H]1CN([C@H](C)CO)C(=O)Cc2cc(NC(=O)Cc3cn(C)c4ccccc34)ccc2O[C@H]1CN(C)Cc1ccc(Oc2ccccc2)cc1
AC50 [16]: 3.74 µM (active)

Cc1ccccc1CSCCNC(=O)CN(c1ccc2c(c1)OCO2)S(C)(=O)=O
EC50 [1]: 5 µM (active)

CCN(CC)S(=O)(=O)c1ccc(N2CCOCC2)c(NC(=O)c2cccc3ccccc23)c1
EC50 (cells [10]): > 350 µM (not active) | EC50 (cells [11]): > 350 µM (not active)

O=C(CN1CCN(c2ccccc2)CC1)Nc1cccc([N+](=O)[O-])c1
IC50 (Fatty acid synthase [2]): 10.7 µM (active) | IC50 (Fatty acid synthase [3]): 9.24 µM (active)

C[C@H](CO)N1C[C@H](C)[C@H](CN(C)Cc2ccc3c(c2)OCO3)Oc2ccc(NC(=O)Nc3ccccc3)cc2C1=O
AC50 [16]: 8.77 µM (active)

Cc1nc2ccccc2c(=O)n1/N=C/c1ccc2ccccc2c1O
EC50 [18]: 44.6 µM (active) | EC50 (cells [10]): > 350 µM (not active) | EC50 (cells [11]): > 350 µM (not active) | EC50 (Streptococcus): > 150 µM (not active) | EC50 (Streptokinase A): > 150 µM (not active)

Cc1ccc(C)c(N2CCN(C(=O)CC3Sc4ccccc4NC3=O)CC2)c1 (centres undefined)
EC50 [1]: 3.76 µM (active)

COc1ccc(NC(=O)Nc2cccc3c2O[C@@H](CN(C)Cc2ccc(C(=O)Nc4ccccc4N)cc2)[C@H](C)CN([C@H](C)CO)C3=O)cc1
AC50 [16]: 2.41 µM (active)

COc1ccc(NC(=O)Nc2ccc3c(c2)C(=O)N([C@H](C)CO)C[C@H](C)[C@H](CN(C)Cc2ccc(-c4ccccc4)cc2)O3)cc1
AC50 [16]: 4.77 µM (active)
